Measured values reported in publication PMC10089224, “A macrocyclic peptide inhibitor traps MRP1 in a catalytically incompetent conformation” (Proceedings of the National Academy of Sciences of the …, 2023).
Entries after “also recorded” stand apart in the source; their conditions may differ. Where a SMILES comes first, the peptide text is derived from it. Bridges are numbered along the chain shown (N, C = ends). [ ]: non-standard residue; d: D form.

Legend:
[1] = biological target: T1, bMRP1 (Bos taurus, UniProt Q8HXQ5); assay: ATPase activity of detergent-solubilized bMRP1, inhibition by CPI1 (basal and LTC4-stimulated); type: biochemical, bovine
T1 construct: eGFP (C, cleaved yes); PreScission protease site (remnant after cleavage) (C); made in house; host or cells: HEK293S GnTI- cells infected with baculovirus (BacMam) made in Sf9 cells
Method: All values reported as the mean ± standard error (SE) of three separate measurements. The statistical significance was calculated using unpaired, parametric, two-sided t tests. Labels: not significant (n.s.), P < 0.05 (*), P < 0.01 (**), P < 0.001 (***) P < 0.0001 (****). […] Rates of ATP hydrolysis were normalized to maximal activity. Data were fit to a modified version of the quadratic binding equation to account for free ligand depletion (Materials and Methods).
All protein purification steps were performed on ice or at 4 °C. Thawed cell pellets were resuspended with a handheld homogenizer (Polytron PT1200E) in a solution of 300 mM NaCl, 50 mM HEPES pH 8.0, 2 mM MgCl2, 2 mM dithiothreitol (DTT), and 20% glycerol with DNase I and protease inhibitors (1 µg/mL aprotinin, 0.6 mM benzamidine, 1 µg/mL leupeptin, 1 µg/mL pepstatin A, 1 mM phenylmethylsulfonyl fluoride, and 100 µg/mL soy trypsin inhibitor). Membranes were solubilized for 1.5 h by addition of 2% lauryl maltose neopentyl glycol and 0.2% cholesteryl hemisuccinate, after which insoluble material was removed by centrifugation for 40 min at 75,000 × g. Supernatant was mixed with GFP nanobody-conjugated Sepharose 4 Fast Flow resin (GE Healthcare) for 1.5 h, after which the slurry was packed into a column and washed with a solution of 0.06% digitonin, 150 mM NaCl, 50 mM HEPES pH 8.0, 2 mM MgCl2, 2 mM DTT, and 5% glycerol. PreScission protease was added to the column at a concentration of 0.35 mg/mL for 3 h to liberate MRP1 or Pgp from the GFP-nanobody resin. Eluate was passed through a glutathione sepharose resin to remove PreScission protease and concentrated with a 100 kDa molecular weight cutoff centrifugal filter. Concentrate was loaded onto a GE Healthcare Superose 6 size exclusion column equilibrated in 0.06% digitonin, 150 mM KCl, 50 mM Tris pH 8.0, 2 mM MgCl2, and 2 mM DTT. Peak fractions were collected, pooled, and concentrated for ATPase assays or freezing cryo-EM grids.
ATPase activity was measured by recording the rate of NADH consumption during ATP regeneration from ADP. […] ATPase activity was quantified by calculating the mean and SEM of at least three separate measurements from a single protein purification for each of bMRP1, hMRP1, and hPgp. Data were fit by nonlinear regression to the Michaelis–Menten equation using GraphPad Prism (Dotmatics).
0 = [R]tot × [L]tot - ([L]tot + [R]tot + Ki)[R·L] + [R·L]^2,
Range normalization factor = (Vmax - Vmin)

[2] = test system: hMRP1; assay: ATPase activity of detergent-solubilized hMRP1, inhibition by CPI1; type: biochemical, human; settings: Fig. 1C: 1 µM hMRP1, 4 mM ATP, CPI1 25-fold molar excess
Method: (§1) Fig. 1. Identification of an MRP1-specific inhibitor. (A) Selection strategy for novel cyclic peptide MRP1 ligands. eGFP: enhanced green fluorescent protein; Nb: anti-eGFP nanobody. (B) CPI1 composition. The first residue in the sequence (Ac^DY1, yellow) is covalently bonded to the 17th residue (C17, green) via a thioether linkage. […] All values reported as the mean ± standard error (SE) of three separate measurements. The statistical significance was calculated using unpaired, parametric, two-sided t tests. Labels: not significant (n.s.), P < 0.05 (*), P < 0.01 (**), P < 0.001 (***) P < 0.0001 (****). […] (D) Dose–response curves of the basal and LTC4-stimulated ATPase activity of bMRP1. Rates of ATP hydrolysis were normalized to maximal activity. Data were fit to a modified version of the quadratic binding equation to account for free ligand depletion (Materials and Methods).
(§2) Bovine and human MRP1, as well as human Pgp, were expressed and purified as described previously. […]
(§3) ATPase activity was measured by recording the rate of NADH consumption during ATP regeneration from ADP. […] NADH consumption was measured by monitoring the rate of NADH fluorescence depletion (λex/λem 340/445 nm) using an Infinite M1000 microplate reader (Tecan) at 28 °C. […]

[3] = test system: Pgp; assay: ATPase activity of detergent-solubilized Pgp, inhibition by CPI1; type: biochemical, human; settings: Pgp 0.5 µM, 4 mM ATP, CPI1 25-fold molar excess; mean ± SE of three separate measurements
Method: as §1, §2, §3

[4] = test system: P-glycoprotein (Pgp); settings: ref [26]–[28]; cited from earlier work
Description: Abrogation of cancer drug resistance by pharmacological inhibition of MRP1 has long been pursued ([10]). […] However, the majority of available MRP1 inhibitors are repurposed from other drug discovery efforts and thus have inherent off-target issues ([24], [25]).

T1 sequence (Q8HXQ5 whole entry): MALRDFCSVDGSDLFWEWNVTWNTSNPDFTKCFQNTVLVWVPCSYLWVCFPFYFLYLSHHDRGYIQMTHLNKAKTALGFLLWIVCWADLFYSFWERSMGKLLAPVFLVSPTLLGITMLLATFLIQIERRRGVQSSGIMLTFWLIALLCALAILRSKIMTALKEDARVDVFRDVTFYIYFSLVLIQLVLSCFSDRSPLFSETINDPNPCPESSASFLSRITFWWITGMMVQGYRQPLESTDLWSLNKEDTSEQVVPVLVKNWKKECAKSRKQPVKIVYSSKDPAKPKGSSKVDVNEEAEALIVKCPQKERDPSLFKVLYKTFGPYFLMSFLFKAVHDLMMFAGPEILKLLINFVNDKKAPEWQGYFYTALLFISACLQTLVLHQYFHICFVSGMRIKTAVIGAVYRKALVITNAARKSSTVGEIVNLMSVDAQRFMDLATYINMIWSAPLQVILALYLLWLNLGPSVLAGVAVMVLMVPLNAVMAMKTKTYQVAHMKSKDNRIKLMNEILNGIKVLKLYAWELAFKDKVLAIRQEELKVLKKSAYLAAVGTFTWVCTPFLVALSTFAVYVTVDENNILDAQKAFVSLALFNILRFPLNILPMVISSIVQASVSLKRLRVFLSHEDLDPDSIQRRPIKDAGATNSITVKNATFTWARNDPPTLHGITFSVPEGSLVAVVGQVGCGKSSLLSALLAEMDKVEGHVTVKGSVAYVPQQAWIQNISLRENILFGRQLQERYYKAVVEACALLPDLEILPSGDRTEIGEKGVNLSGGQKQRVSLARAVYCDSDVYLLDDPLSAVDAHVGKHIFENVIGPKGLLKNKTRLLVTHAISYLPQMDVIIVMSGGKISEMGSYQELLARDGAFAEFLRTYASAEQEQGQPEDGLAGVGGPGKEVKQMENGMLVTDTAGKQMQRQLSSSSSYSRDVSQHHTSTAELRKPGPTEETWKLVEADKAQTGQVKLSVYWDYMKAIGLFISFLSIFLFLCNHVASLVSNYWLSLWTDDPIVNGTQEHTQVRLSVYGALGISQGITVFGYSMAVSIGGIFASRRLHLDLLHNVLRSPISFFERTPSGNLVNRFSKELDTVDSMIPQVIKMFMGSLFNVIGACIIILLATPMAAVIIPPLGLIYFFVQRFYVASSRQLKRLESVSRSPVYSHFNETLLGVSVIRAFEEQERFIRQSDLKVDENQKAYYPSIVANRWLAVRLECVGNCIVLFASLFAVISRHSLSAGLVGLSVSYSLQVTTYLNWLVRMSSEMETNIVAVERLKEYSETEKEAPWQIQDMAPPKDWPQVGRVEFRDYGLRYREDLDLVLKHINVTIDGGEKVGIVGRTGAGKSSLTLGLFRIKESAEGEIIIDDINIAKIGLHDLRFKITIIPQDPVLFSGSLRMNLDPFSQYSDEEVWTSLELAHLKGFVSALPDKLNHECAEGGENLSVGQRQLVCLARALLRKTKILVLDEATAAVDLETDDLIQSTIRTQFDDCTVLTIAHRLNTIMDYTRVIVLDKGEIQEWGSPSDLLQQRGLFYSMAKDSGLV

| Ki [1] | affinity of CPI1 for MRP1 ([1]; approximate, Fig. 1D, compared with LTC4) | mode of inhibition (in words) ([1]; with respect to LTC4, inferred from shared binding site in structure and affinity) | SMILES | inhibition of ATPase activity (in words) ([1]; bMRP1, Fig. 1C: 1 µM bMRP1, 4 mM ATP, CPI1 25-fold molar excess) | inhibition of ATPase activity (in words) [2] | inhibition of Pgp (in words) [3] | inhibition of P-glycoprotein (in words) [4] |
| --- | --- | --- | --- | --- | --- | --- | --- |
| 0.07 ± 0.029 µM | ~ 100 nM | potent competitive inhibitor of LTC4 | CC(C)C[C@@H]1NC(=O)[C@H](CC(N)=O)NC(=O)CNC(=O)[C@H](Cc2c[nH]c3ccccc23)NC(=O)[C@H](Cc2ccccc2)NC(=O)[C@@H](Cc2ccc(O)cc2)NC(=O)CSC[C@@H](C(=O)O)NC(=O)[C@H]([C@@H](C)O)NC(=O)[C@H](CO)NC(=O)[C@H](CC(=O)O)NC(=O)[C@H](Cc2ccccc2)NC(=O)[C@H](CCC(N)=O)NC(=O)[C@H](CCC(=O)O)NC(=O)[C@H](Cc2ccc(O)cc2)NC(=O)[C@H](Cc2ccc(O)cc2)NC(=O)[C@H](Cc2c[nH]c3ccccc23)NC(=O)[C@H](Cc2c[nH]cn2)NC1=O [CPI1] ({CH2CO}-[dY]FWGNLHWYYEQFDSTC-OH; thioether N-17; C-terminus assumed) | inhibited the ATPase activity of both human and bovine MRP1 | robust inhibition of hMRP1 ATPase activity | only modest inhibition of Pgp when applied at a 25-fold molar excess; also recorded: minimal inhibition of a related multidrug transporter P-glycoprotein |  |
|  |  |  | O=C(NCCCN1CCOCC1)c1cnn2c(-c3ccccc3)cc(-c3ccccc3)nc12 [Reversan] |  |  |  | also inhibit P-glycoprotein |
